Tests used:
Assay in all cases: relative viability (nuclei count vs DMSO), 5 days (fraction); higher = more cells survive
Bortezomib + Pictilisib = compound: CC(C)C[C@H](NC(=O)[C@H](Cc1ccccc1)NC(=O)c1cnccn1)B(O)O [Bortezomib] + CS(=O)(=O)N1CCN(Cc2cc3nc(-c4cccc5[nH]ncc45)nc(N4CCOCC4)c3s2)CC1 [Pictilisib] (partner 1 µM)
How it was run: (§1)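 One day after seeding in 1536-well plates, lung cancer cell lines were dosed by pin tool. Dosing was either single-drug or a fixed anchor-drug dose plus five library-drug doses (not always all listed) in √10 steps. After 5 days, nuclei were stained in one fix-and-stain step and counted on 4× images, and relative viability is the nuclei count of treated wells over that of vehicle wells, given as the median of duplicate plates.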

Bortezomib + AZD7762 = compound: CC(C)C[C@H](NC(=O)[C@H](Cc1ccccc1)NC(=O)c1cnccn1)B(O)O [Bortezomib] + NC(=O)Nc1cc(-c2cccc(F)c2)sc1C(=O)N[C@H]1CCCNC1 [AZD7762] (partner 0.2 µM)
How it was run: as §1

[1] = compound: CC1=CC(=NN1)NC2=CC(=NC(=N2)/C=C/C3=CC=CC=C3)N4CCN(CC4)C + CC(C)C[C@H](NC(=O)[C@H](Cc1ccccc1)NC(=O)c1cnccn1)B(O)O [Bortezomib] (partner 0.002 µM)
How it was run: as §1

[2] = compound: CC1=CC(=NN1)NC2=CC(=NC(=N2)/C=C/C3=CC=CC=C3)N4CCN(CC4)C + Nc1nc2[nH]cc(CCc3ccc(C(=O)N[C@@H](CCC(=O)O)C(=O)O)cc3)c2c(=O)[nH]1 [Pemetrexed] (partner 0.2 µM)
How it was run: as §1

Cell Line	relative viability (Bortezomib + Pictilisib; first compound 0.0002 µM)	relative viability (Bortezomib + Pictilisib; first compound 0.000632 µM)	relative viability (Bortezomib + Pictilisib; first compound 0.002 µM)	relative viability (Bortezomib + Pictilisib; first compound 0.006325 µM)	relative viability (Bortezomib + Pictilisib; first compound 0.02 µM)	relative viability (Bortezomib + AZD7762; first compound 0.0002 µM)	relative viability (Bortezomib + AZD7762; first compound 0.000632 µM)	relative viability (Bortezomib + AZD7762; first compound 0.002 µM)	relative viability (Bortezomib + AZD7762; first compound 0.006325 µM)	relative viability (Bortezomib + AZD7762; first compound 0.02 µM)	relative viability ([1]; first compound 0.08 µM)	relative viability ([1]; first compound 0.253 µM)	relative viability ([1]; first compound 0.8 µM)	relative viability ([1]; first compound 2.53 µM)	relative viability ([1]; first compound 8 µM)	relative viability ([2]; first compound 0.08 µM)	relative viability ([2]; first compound 0.253 µM)	relative viability ([2]; first compound 0.8 µM)	relative viability ([2]; first compound 2.53 µM)	relative viability ([2]; first compound 8 µM)
PC-3 [JPC-3]	0.795	0.762	0.804	0.281	0.26	0.773	0.829	0.531	0.225	0.199	0.836	0.968	0.838	0.853	0.761	1.15	1.2	1.03	0.849	0.361
HCC-44	0.581	0.575	0.554	0.464	0.133	0.959	0.985	1.01	1.04	0.239	0.805	0.968	0.854	0.735	0.25	0.642	0.644	0.631	0.622	0.557
NCI-H2405	0.462	–	0.464	0.152	0.148	0.699	0.714	0.919	0.165	0.159	0.963	0.819	1.02	0.865	0.958	1.02	0.979	1.04	0.503	0.162
LXF-289	0.829	0.81	0.717	0.07	0.0457	1.12	1.03	1.19	0.11	0.0936	0.992	0.98	0.917	0.656	0.115	0.872	0.874	0.895	0.615	0.444
LOU-NH91	0.509	0.479	0.395	0.339	0.317	0.729	0.68	0.361	0.348	0.339	0.403	0.472	0.537	0.474	0.358	0.383	0.389	0.391	0.394	0.361
A549	0.507	0.531	0.468	0.049	0.0452	–	–	–	–	–	–	–	–	–	–	–	–	–	–	–
H3255	0.58	0.482	0.406	0.192	0.142	0.867	–	0.655	0.517	0.328	0.878	0.854	0.895	0.745	0.198	0.526	0.589	0.573	0.555	0.391
NCI-H1395	0.566	0.58	0.531	0.445	0.294	0.381	0.393	0.385	0.323	0.304	–	–	–	–	–	0.875	0.814	0.714	0.357	0.233
LC-2-ad	0.558	–	0.486	0.0865	0.104	0.828	0.787	0.878	0.271	0.182	0.938	1.03	0.602	0.289	0.0902	0.263	0.266	0.269	0.187	0.143

Source: the supplement of paper PMC10307832
